# Measured values as given in patent US4073913A, “N^2 -arylsulfonyl-L-argininamides and the pharmaceutically acceptable salts thereof” (Mitsubishi Chemical Industries Limited, priority 1974, dated 1978).
# Non-standard residues stand in square brackets, D forms with d. Residues, ends and D or L forms follow the SMILES beside them. ξ: configuration not given here. *: point of attachment. Dansyl = CN(C)c1cccc2c(S(=O)(=O)*)cccc12; ξPip = O=C(O)C1CCCCN1
# Target: T1, thrombin (Bos taurus, UniProt P00735)
# T1 construct: clotting of bovine fibrinogen
# Experiment: fibrinogen coagulation time (concentration required to prolong the coagulation time by a factor of two)
# Format: biochemical
# Conditions: bovine fibrinogen, thrombin 5 units/ml, borate saline buffer pH 7.4, 25° C; control 50-55 seconds prolonged to 100-110 seconds
# Description: The measurement of the fibrinogen coagulation time was conducted as follows:
# Immediately after mixing, the reaction mixture was transferred from the ice bath to a bath maintained at 25° C. Coagulation times were taken as the period between the time of transference to the 25° C bath and the time of the first appearance of fibrin threads. […] The term "concentration required to prolong the coagulation time by a factor of two" is the concentration of an active ingredient required to prolong the normal coagulation time 50-55 seconds to 100-110 seconds.
row,SMILES,IC (2-fold clotting time) [µM]
1,COCCN(CC(=O)O)C(=O)[C@H](CCCNC(=N)N)NS(=O)(=O)c1cccc2ccc(C)cc12 [compound 151],20
2,COc1cc2ccc(S(=O)(=O)N[C@@H](CCCNC(=N)N)C(=O)N3Cc4ccccc4CC3C(=O)O)cc2cc1OC (stereo partly shown) [compound 194],2
3,COc1cc2ccc(S(=O)(=O)N[C@@H](CCCNC(=N)N)C(=O)N(CC(=O)O)C3CCCCC3)cc2cc1OC [compound 111],5
4,CC1CCN(C(=O)[C@H](CCCNC(=N)N)NS(=O)(=O)c2cccc3ccccc23)C(C(=O)O)C1 (stereo partly shown) [compound 179],1
5,Cc1ccc2ccc(S(=O)(=O)N[C@@H](CCCNC(=N)N)C(=O)N(CC(=O)O)CC3CCCO3)cc2c1 (stereo partly shown) [compound 160],0.25
6,Cc1ccc2ccc(S(=O)(=O)N[C@@H](CCCNC(=N)N)C(=O)N(CC(=O)O)CC3CCCO3)cc2c1 (stereo partly shown) [compound 161],0.2
7,COCCN(CC(=O)O)C(=O)[C@H](CCCNC(=N)N)NS(=O)(=O)c1cc(OC)c2cc(OC)ccc2c1 [compound 23],4
8,Cc1ccc2ccc(S(=O)(=O)N[C@@H](CCCNC(=N)N)C(=O)N(CC(=O)O)CC3CCCCC3)cc2c1 [compound 146],14
9,COc1ccc2cc(S(=O)(=O)N[C@@H](CCCNC(=N)N)C(=O)N(CCCC(=O)O)Cc3ccccc3)ccc2c1 [compound 60],50
10,COCCN(CC(=O)O)C(=O)[C@H](CCCNC(=N)N)NS(=O)(=O)c1cccc2cc(C)c(C)cc12 [compound 152],10
11,CN(C)c1cccc2c(S(=O)(=O)N[C@@H](CCCNC(=N)N)C(=O)N3CCCCC3C(=O)O)cccc12 (stereo partly shown) [compound 183] (Dansyl-Arg-[ξPip]-OH),0.35
12,CCCCN(CC(=O)O)C(=O)[C@H](CCCNC(=N)N)NS(=O)(=O)c1ccc2cc(OC)ccc2c1 [compound 31],0.5
13,CCOCCN(CCC(=O)O)C(=O)[C@H](CCCNC(=N)N)NS(=O)(=O)c1ccc2cc(OC)c(OC)cc2c1 [compound 21],4
14,CCCCN(CC(=O)O)C(=O)[C@H](CCCNC(=N)N)NS(=O)(=O)c1ccc2ccc(C)cc2c1 [compound 143],0.3
15,Cc1ccc2ccc(S(=O)(=O)N[C@@H](CCCNC(=N)N)C(=O)N3CCC(C(C)C)CC3C(=O)O)cc2c1 (stereo partly shown) [compound 175],0.1
16,COCCN(CC(=O)O)C(=O)[C@H](CCCNC(=N)N)NS(=O)(=O)c1ccc2ccc(OC)cc2c1 [compound 35],0.5
17,COc1cc2ccc(S(=O)(=O)N[C@@H](CCCNC(=N)N)C(=O)N3Cc4ccccc4C3C(=O)O)cc2cc1OC (stereo partly shown) [compound 195],1.5
18,COCCN(CC(=O)O)C(=O)[C@H](CCCNC(=N)N)NS(=O)(=O)c1cccc2c(OC)cccc12 [compound 43],2.5
19,N=C(N)NCCC[C@H](NS(=O)(=O)c1ccc2c(c1)CCCC2)C(=O)N(CC(=O)O)Cc1ccccc1 [compound 133],30
20,COc1ccc2cc(S(=O)(=O)N[C@@H](CCCNC(=N)N)C(=O)N(CC(=O)O)Cc3ccccc3)cc(OC)c2c1 [compound 58],6.5
21,COCCN(CC(=O)O)C(=O)[C@H](CCCNC(=N)N)NS(=O)(=O)c1ccc2cc(OC)c(OC)cc2c1 [compound 13],0.5
22,CCCCN(CC(=O)O)C(=O)[C@H](CCCNC(=N)N)NS(=O)(=O)c1cccc2c1CCCC2 [compound 130],20
23,COc1ccc2cc(S(=O)(=O)N[C@@H](CCCNC(=N)N)C(=O)N(CCC(=O)O)Cc3ccccc3)ccc2c1 [compound 62],15
24,COc1ccc2ccc(S(=O)(=O)N[C@@H](CCCNC(=N)N)C(=O)N(C)C(Cc3ccccc3)C(=O)O)cc2c1 (stereo partly shown) [compound 211],2.5
25,COc1ccc2ccc(S(=O)(=O)N[C@@H](CCCNC(=N)N)C(=O)N(CC(=O)O)Cc3ccco3)cc2c1 [compound 162],0.2

# Continued, values first:
row,IC (2-fold clotting time) [µM],SMILES
1,5,CCCCCN(CC(=O)O)C(=O)[C@H](CCCNC(=N)N)NS(=O)(=O)c1ccc2cc(OC)c(OC)cc2c1 [compound 7]
2,0.5,CCCCN(CC(=O)O)C(=O)[C@H](CCCNC(=N)N)NS(=O)(=O)c1ccc2ccc(OC)cc2c1 [compound 39]
3,1.5,COc1cc2ccc(S(=O)(=O)N[C@@H](CCCNC(=N)N)C(=O)N(CCc3ccccc3)C(C)C(=O)O)cc2cc1OC (stereo partly shown) [compound 122]
4,3,COc1cc2ccc(S(=O)(=O)N[C@@H](CCCNC(=N)N)C(=O)N(CCc3ccccc3)CC(=O)O)cc2cc1OC [compound 54]
5,2.5,COCCN(CCCC(=O)O)C(=O)[C@H](CCCNC(=N)N)NS(=O)(=O)c1ccc2cc(OC)c(OC)cc2c1 [compound 17]
6,2,COc1cc2ccc(S(=O)(=O)N[C@@H](CCCNC(=N)N)C(=O)N(C)C(Cc3ccccc3)C(=O)O)cc2cc1OC (stereo partly shown) [compound 209]
7,1.5,CCCCCCN(CC(=O)O)C(=O)[C@H](CCCNC(=N)N)NS(=O)(=O)c1ccc2cc(OC)c(OC)cc2c1 [compound 9]
8,0.5,CC(C)C1CCN(C(=O)[C@H](CCCNC(=N)N)NS(=O)(=O)c2ccc3ccccc3c2)C(C(=O)O)C1 (stereo partly shown) [compound 181]
9,55,CCCC(C(=O)O)N(CC(=O)O)C(=O)[C@H](CCCNC(=N)N)NS(=O)(=O)c1ccc2cc(OC)c(OC)cc2c1 (stereo partly shown) [compound 207]
10,2,COc1cc2ccc(S(=O)(=O)N[C@@H](CCCNC(=N)N)C(=O)N(CC(=O)O)CC(C)C)cc2cc1OC [compound 5]
11,2.5,COc1ccc2ccc(S(=O)(=O)N[C@@H](CCCNC(=N)N)C(=O)N3CCCCCC3C(=O)O)cc2c1 (stereo partly shown) [compound 205]
12,50,COc1cc2ccc(S(=O)(=O)N[C@@H](CCCNC(=N)N)C(=O)N(CCC(=O)O)CCc3ccccc3)cc2cc1OC [compound 56]
13,2,CCCCCCCCOC(=O)CN(CCOC)C(=O)[C@H](CCCNC(=N)N)NS(=O)(=O)c1ccc2cc(OC)c(OC)cc2c1 [compound 200]
14,5,COCCCN(CC(=O)O)C(=O)[C@H](CCCNC(=N)N)NS(=O)(=O)c1ccc2cc(OC)c(OC)cc2c1 [compound 19]
15,2,CCCCCN(C(=O)[C@H](CCCNC(=N)N)NS(=O)(=O)c1ccc2cc(OC)c(OC)cc2c1)C(C)C(=O)O (stereo partly shown) [compound 118]
16,15,COc1cc2ccc(S(=O)(=O)N[C@@H](CCCNC(=N)N)C(=O)N3CCCC[C@H]3C(=O)O)cc2cc1OC [compound 221]
17,5,COc1cc2ccc(S(=O)(=O)N[C@@H](CCCNC(=N)N)C(=O)N3CCCCC3C(=O)O)cc2cc1OC (stereo partly shown) [compound 71]
18,10,COc1cc2ccc(S(=O)(=O)N[C@@H](CCCNC(=N)N)C(=O)N(CCC(=O)O)Cc3ccccc3)cc2cc1OC [compound 52]

row,IC (2-fold clotting time) [µM],SMILES
1,30,COCCN(CC(=O)Oc1ccc2c(c1)CCC2)C(=O)[C@H](CCCNC(=N)N)NS(=O)(=O)c1ccc2cc(OC)c(OC)cc2c1 [compound 203]
2,1,COc1ccc2ccc(S(=O)(=O)N[C@@H](CCCNC(=N)N)C(=O)N(CCSC)CC(=O)O)cc2c1 [compound 67]
3,6.5,COc1cc2ccc(S(=O)(=O)N[C@@H](CCCNC(=N)N)C(=O)N(CC(=O)O)CC(C)OC)cc2cc1OC (stereo partly shown) [compound 212]
4,4.5,COc1ccc2cc(S(=O)(=O)N[C@@H](CCCNC(=N)N)C(=O)N(CC3CCCCC3)C(C)C(=O)O)cc(OC)c2c1 (stereo partly shown) [compound 126]
5,1.5,CCOC(=O)CN(CCOC)C(=O)[C@H](CCCNC(=N)N)NS(=O)(=O)c1ccc2cc(OC)c(OC)cc2c1 [compound 14]
6,8,CCCN(CC(=O)O)C(=O)[C@H](CCCNC(=N)N)NS(=O)(=O)c1ccc2cc(OC)c(OC)cc2c1 [compound 1]
7,5,COCCN(C(=O)[C@H](CCCNC(=N)N)NS(=O)(=O)c1ccc2cc(OC)c(OC)cc2c1)C(C)C(=O)O (stereo partly shown) [compound 129]
8,15,CCCC(NC(=O)[C@H](CCCNC(=N)N)NS(=O)(=O)c1ccc2cc(OC)c(OC)cc2c1)C(=O)O (stereo partly shown) [compound 214]
9,0.15,COc1ccc2ccc(S(=O)(=O)N[C@@H](CCCNC(=N)N)C(=O)N(CC(=O)O)CC3CCCO3)cc2c1 (stereo partly shown) [compound 164]
10,5,COc1cc2ccc(S(=O)(=O)N[C@@H](CCCNC(=N)N)C(=O)N3CCOCC3C(=O)O)cc2cc1OC (stereo partly shown) [compound 191]
11,6.5,CCOC(=O)CCN(CC(=O)O)C(=O)[C@H](CCCNC(=N)N)NS(=O)(=O)c1ccc2cc(OC)c(OC)cc2c1 [compound 196]
12,2.5,COc1cc2ccc(S(=O)(=O)N[C@@H](CCCNC(=N)N)C(=O)N(Cc3ccccc3)C(C)C(=O)O)cc2cc1OC (stereo partly shown) [compound 120]
13,20,COCCN(CC(=O)Oc1cccc(C)c1)C(=O)[C@H](CCCNC(=N)N)NS(=O)(=O)c1ccc2cc(OC)c(OC)cc2c1 [compound 202]
14,6.5,COc1ccc2ccc(S(=O)(=O)N[C@@H](CCCNC(=N)N)C(=O)N(CC[S+](C)[O-])CC(=O)O)cc2c1 (stereo partly shown) [compound 222]
15,15,CCOc1cc2ccc(S(=O)(=O)N[C@@H](CCCNC(=N)N)C(=O)N(CCOC)CC(=O)O)cc2cc1OCC [compound 27]
16,4.5,COc1ccc2ccc(S(=O)(=O)N[C@@H](CCCNC(=N)N)C(=O)N3CC[S+]([O-])CC3C(=O)O)cc2c1 (stereo partly shown) [compound 204]
17,0.2,Cc1ccc2ccc(S(=O)(=O)N[C@@H](CCCNC(=N)N)C(=O)N3CCC(C)CC3C(=O)O)cc2c1 (stereo partly shown) [compound 173]
18,0.2,COCCN(CC(=O)O)C(=O)[C@H](CCCNC(=N)N)NS(=O)(=O)c1ccc2ccc(C)cc2c1 [compound 144]
